Reference: article PMC8092209, “Structural Basis of Ligand Selectivity by a Bacterial Adhesin Lectin Involved in Multispecies Biofilm Formation” (mBio, 2021)

Columns and labels:
MpPA14 [1] = biological target: T1, MpPA14 (Marinomonas primoryensis, UniProt A1YIY3); assay: Second glycan array (32 polysaccharides, Max Planck Institute for Marine Microbiology); assay type: binding; details: for Binding of MpPA14 (RFUs): normalized signal intensity, maximal mean set to 100, cutoff of 5
Source text: To expand the repertoire of glycans beyond glucans and mannans, we performed a second focused microarray composed of 32 polysaccharides found in microbes such as fungi and bacteria, as well as in macroalgae and plants (Fig. 4B). […] In addition, MpPA14 interacted avidly with fucoidans from macroalgae. […] This conformer is not present in the arabinan polymer composed of 1,5-linked α-L-arabino-furanoses, which are then not free to transition to the pyranose form. Similarly, since the MpPA14 binds galactose via the 1,2-diol (β-anomer) (Fig. 3H), the lectin cannot interact with galactans, as they are polymers of β-1,4-D-galactose (Fig. 4B and Table S5).
The second glycan array was performed at the Max Planck Institute for Marine Microbiology (Bremen, Germany). The array contained duplicates of 32 polysaccharides, including those from macroalgae, bacteria, fungi, and land plants (see details in Table S5 in the supplemental material). N-terminally His-tagged MpPA14 was incubated with the array, and binding of the lectin to the polysaccharides was detected by an anti-His tag secondary antibody conjugated to alkaline phosphatase (Sigma-Aldrich). Microarray probing and quantification were performed as previously described ([45]). Maximal mean (average of the duplicates) signal intensity was set to 100, and the rest of values were normalized accordingly. A cutoff of 5 was applied ([58]).

MpPA14 [2] = biological target: T1, MpPA14; assay: First glycan array (fungal, bacterial and plant polysaccharide array set 2, Imperial College); assay type: binding; details: for binding to MpPA14 in first glycan array (in words): GFP-MpPA14; for Binding of MpPA14 (RFUs): GFP-MpPA14 50 μg/ml, Alexa Fluor 647 anti-GFP antibody, mean of duplicates

T1 sequence (A1YIY3 entry or part of it): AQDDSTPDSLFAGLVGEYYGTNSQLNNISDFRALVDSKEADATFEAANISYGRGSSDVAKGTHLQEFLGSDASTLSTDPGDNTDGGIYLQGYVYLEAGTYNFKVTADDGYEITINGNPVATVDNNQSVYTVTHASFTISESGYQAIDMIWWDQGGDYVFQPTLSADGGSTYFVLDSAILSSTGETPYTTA

Substance	Binding of MpPA14 (RFUs) (MpPA14 [1])	binding to MpPA14 in first glycan array (in words) (MpPA14 [2])	Binding of MpPA14 (RFUs) (MpPA14 [2])	binding to MpPA14 in second glycan array (in words) (MpPA14 [1])
Alginate	22	–	–	–
Arabinoxylan	0	–	–	–
Carboxymethyl cellulose (β-(1→4)-D-glucan)	28	–	–	–
Curdlan (β-(1→3)-D-glucan)	–	negligible or no detectable binding	167	–
Dextran (α-(1→6)-D-glucan backbone)	–	bound most avidly	41390	–
Fucoidan [Fucoidan (Ascophyllum nodosum)]	77	–	–	strongest MpPA14-binding fucoidans
Fucoidan [Fucoidan (Cladosiphon)]	100	–	–	strongest MpPA14-binding fucoidans
Fucoidan [Fucoidan (Fucus serratus)]	53	–	–	–
Fucoidan [Fucoidan (Fucus vesiculosus)]	29	–	–	–
Fucoidan [Fucoidan (Laminaria)]	69	–	–	–
Fucoidan [Fucoidan (Sargassum)]	84	–	–	strongest MpPA14-binding fucoidans
GN6-AO (chitin, β-1→4-GlcNAc)	–	negligible or no detectable binding	178	–
Galactofucan	40	–	–	–
Galactomannan (β-(1→4)-D-mannan backbone)	0	–	–	did not bind
Glucomannan (β-(1→4)-D-mannose and D-glucose backbone)	0	–	–	–
Glucurono-XyloMannan (α-(1→3)-Mannan with Xyl, GlcA and Fuc branches)	0	negligible or no detectable binding	75	–
Grifolan (β-(1→3)-D-glucan backbone, highly branched oligomers)	–	bound most avidly	39935	–
Laminarin (β-(1→3)-D-glucan backbone with 1→6 branches) [Laminarin (Eisenia bicyclis)]	39	–	–	–
Laminarin (β-(1→3)-D-glucan backbone with 1→6 branches) [Laminarin (Laminaria digitata)]	41	–	–	–
Lentinan (β-(1→3)-D-glucan backbone, β-(1→3)-D-glucan branches)	–	bound most avidly	41060	–
Lichenan (β-(1→3)(1→4)-D-glucan) [Lichenan (Icelandic moss)]	44	–	–	–
Lichenan Mixed β-(1→3)/β-(1→4)-D-glucan [Lichenan (Lichen)]	–	–	349	–

Substance	Binding of MpPA14 (RFUs) (MpPA14 [1])	binding to MpPA14 in first glycan array (in words) (MpPA14 [2])	Binding of MpPA14 (RFUs) (MpPA14 [2])	binding to MpPA14 in second glycan array (in words) (MpPA14 [1])
Mannan (α-(1→6)-D-mannan backbone, α-(1→2)-,α-(1→3)-mannan branches) [Mannan (Saccharomyces cerevisiae)]	0	weak binding	3808	no detectable interaction
Mannan (β-(1→4)-D-mannan) [Mannan (Ivory nut)]	15	–	–	–
Mannoprotein (mannose rich)	–	negligible or no detectable binding	0	–
N -Mannoprotein (α-1→6-mannan backbone with oligomeric α-(1→2)-, α-(1→3)-, and β-(1→2)-mannan branches	–	moderate lectin-glycan interactions	17438	–
NSG (β-(1→3)-D-glucan backbone, β-(1→3)-D-glucan branches)	–	–	2319	–
PGPGG (β-(1→3)-D-glucan backbone, β-(1→3)-D-glucan branches)	–	–	30143	–
Pachyman (β-(1→3)-D-glucan backbone with 1→6 branches)	75	–	–	significant binding
Partially acetylated alginate	0	–	–	–
Polygalacturonic acid (α-(1→4)-D-galacturonic acid)	0	–	–	–
Porphyran	0	–	–	did not bind
Pullulan (α-(1→4)(1→6)-D-glucan)	37	bound most avidly	58106	–
Pustulan (β-(1→6)-D-glucan) [Pustulan (Lasallia pustulata)]	86	–	–	significant binding
Pustulan (β-(1→6)-D-glucan) [Pustulan (Umbilicaria papullosa)]	–	–	1565	–
Rhamnogalacturonan I	0	–	–	–
Scleroglucan (β-(1→3)-D-glucan backbone with 1→6 branches)	65	–	–	significant binding
Ulvan	34	–	–	–
Xyloglucan	0	–	–	did not bind
α-(1→5)-L-arabinan	0	–	–	did not bind
β-(1→4)-D-galactan	0	–	–	did not bind
β-(1→4)-D-xylan	0	–	–	did not bind
β-glucan Mixed β-(1→3)/β-(1→4)-D-glucan [β-glucan (Barley)]	0	negligible or no detectable binding	23	–
β-glucan Mixed β-(1→3)/β-(1→4)-D-glucan [β-glucan (Oat)]	–	negligible or no detectable binding	0	–
